Calls of active or inactive are those of the source.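 The calls were made as follows: active = compounds giving half or more protection of infected cells from virus-caused growth loss, again on retest; inactive = the rest.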
Test system: CEM cells HIV-1 protection, formazan growth assay
Assay: NCI AIDS Antiviral Assay
Settings: for IC50: measured here: growth of uninfected CEM cells
In short: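 Protection of CEM cells against HIV-1 was scored from cell growth (soluble formazan) across five concentrations, with parallel uninfected cells. Lack of protection may reflect toxicity.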

Compound | EC50 [µM] | IC50 [µM] | outcome
CCOc1ccc(C(=O)CCN2CCC3CCC(C3)C2)cc1 (stereo not drawn) | > 200 | 13.8 | 
CN(C)c1nc(N(C)C)nc(N2C(=O)c3ccccc3C2=O)n1 | > 100 | 0.389 | 
Cn1nc(S(N)(=O)=O)s/c1=N/C(N)=S | > 200 | > 200 | 
N#Cc1nc(-c2cccc(-c3nc(C#N)c(N)o3)n2)oc1N |  |  | inactive
COc1ccc(C=O)cc1Oc1ccc(C[C@H]2c3c(cc(OC)c4c3Oc3cc5c(cc3O4)CCN(C)C5=O)CCN2C)cc1 | > 200 | 9.77 | 
COC(=O)C[C@](O)(CCCC(C)(C)O)C(=O)O[C@@H]1C(OC)=C[C@]23CCCN2CCc2cc4c(cc2[C@H]13)OCO4 | > 2.29 | 0.0138 | 
O=C1NC2(CCCC2)C(=O)C12CCCC2 |  |  | inactive
CCCCNC(=O)C1C2C=CC(O2)C1C(=O)O (stereo not drawn) | > 200 | > 200 | 
COc1cc(Cc2cnc(N)nc2N)cc(OC)c1OC | > 200 | > 200 | 
C/C=C1\CN2CCc3c([nH]c4ccccc34)C2C=C1CCO (stereo not drawn) | > 170 | > 170 | 
Cc1ccc(/C=C2\CN(C)CC3=C2NC(=S)NC3c2ccc(C)cc2)cc1 (stereo not drawn) | > 200 | 25.1 | 
O=C(C1OC1c1ccc([N+](=O)[O-])cc1)C12CC3CC(CC(C3)C1)C2 (stereo not drawn) | > 200 | 12.3 | 
N#Cc1c(CC(=O)O)cc(=O)n2c1[nH]c1ccccc12 | > 933 | 316 | 
COc1ccc2[nH]c3c(=O)[nH]ncc3c2c1 |  |  | inactive
O=C1c2cc3c(cc2CC12Cc1cc4c(cc1C2)CCC4)CCC3 | > 200 | > 200 | 
CCOC(=O)CN=C1NNS(=O)(=O)c2ccccc21 | > 200 | 110 | 
N[C@H]1CCc2c1nc1c(c2-c2ccccc2)CC[C@@H]1N | > 200 | 83.2 | 
Cc1cc2c(C)nn(Cc3ccccc3)c2c(C(=O)O)c1C | > 123 | > 123 | 
COc1ccc(C2c3cc4c(cc3OC3(OC)COC(=O)C23)OCO4)c(OC)c1 (stereo not drawn) | > 100 | 4.68 | 
C/C(=C1/N=C(c2cc([N+](=O)[O-])ccc2Cl)N(c2cccc(C)c2)C1=O)c1cc2ccccc2oc1=O | > 7.59 | > 7.59 | 
O=C1Oc2cc3c(c4cccc1c24)OCN(c1ccccc1)C3 | > 33.1 | 24.5 | 
CCC(=O)OC1CCn2c1nc1c2C(=O)C(C)=C(NC(C)=O)C1=O (stereo not drawn) | > 200 | 1.23 | 

Compound | EC50 [µM] | IC50 [µM] | outcome
Oc1cc(O)c2c(c1)OC(c1ccc(O)c(O)c1)C(O)[C@H]2c1c(O)cc(O)c2c1OC(c1ccc(O)c(O)c1)C(O)C2 (stereo partly drawn) | > 200 | 110 | 
Oc1[nH]c2ccccc2c1N=Nc1nc(-c2ccccc2)cs1 | > 200 | > 200 | 
O=C(CN1CCN(c2ccccc2)CC1)c1ccc2[nH]c(=O)oc2c1 | > 200 | > 200 | 
CCCNP(=S)(NCCC)NCCC | > 200 | > 200 | 
COc1c2c(c(Cl)c3ccc(=O)oc13)CCO2 | > 70.8 | > 70.8 | 
CC(=O)[O-].O=S(=O)(Nc1ncccn1)c1ccc(N=Cc2ccccc2O)cc1.O=S(=O)(Nc1ncccn1)c1ccc(N=Cc2ccccc2O)cc1.[Co+2] | > 200 | 39.8 | 
Clc1c(Cl)c(Cl)c2nn(C3CCCO3)nc2c1Cl (stereo not drawn) | > 200 | 39.8 | 
CC(C)(C)C1CCC(=O)/C(=C/CC2CC(=O)N(c3ccccc3)C(=O)C2)C1 (stereo not drawn) | > 200 | 11.2 | 
CCN=C(N)SCCS(=O)(=O)O | > 200 | > 200 | 
COc1cccc(NC(=O)CC(=O)n2nc(C)c(N=Nc3ccccc3F)c2C)c1 |  |  | inactive
CCOC(=O)C1=C(C)C(C(=O)OC)[C@]2(C)C(C(=O)OCC)=C(O)C(C(=O)OC)[C@]12C (stereo partly drawn) | > 126 | > 126 | 
CCOC(=O)Nc1cc2nnc(-c3ccccc3)nc2c(N)n1 |  |  | inactive
C=CCn1c(=S)sc2c(=O)[nH]cnc21 | > 1120 | 195 | 
C[N+]1(Cc2ccc([N+](=O)[O-])cc2)CCC(CCCCCCCC2CC[N+](C)(Cc3ccc([N+](=O)[O-])cc3)CC2)CC1 (stereo not drawn) | > 200 | 14.5 | 
CC(C)CCC[C@@H](C)C1CCC2[C@@H]3CCC4C[C@H](CCC=C(c5cc(Cl)c(O)c(C(=O)O)c5)c5cc(Cl)c(O)c(C(=O)O)c5)CC[C@]4(C)C3CC[C@@]21C (stereo partly drawn) | 35.5 | > 200 | 
O=CNC(CSSCC(NC=O)C(=O)O)C(=O)O (stereo not drawn) | > 200 | > 200 | 
O=C(NNC(=S)NC1CCCCC1)c1csc(NC(=S)NC2CCCCC2)n1 | > 20 | 1.86 | 
Cc1csc(=S)n1OC(=O)NC1CCCCC1 | > 912 | 45.7 | 
NCCSSc1ccccc1C(=O)O | > 200 | > 200 | 
COc1cc(OC)c(/C=N\Nc2nc3ccccc3c(=O)n2-c2ccccc2)c(OC)c1 | > 50.1 | 37.2 | 
COc1ccc(-c2c(O)c3ccc(OC)cc3oc2=O)cc1 | > 200 | 155 | 
COC(=O)c1cc(C(=CCCO)c2cc(Cl)c(OC)c(C(=O)OC)c2)cc(Cl)c1OC | > 200 | 24.5 | 

Compound | EC50 [µM] | IC50 [µM] | outcome
CCC(=O)C12OC3OC(C)(C)OC3C1OC(C)(C)O2 (stereo not drawn) |  |  | inactive
COc1ccc(NS(=O)CCCc2ccccc2)cc1 (stereo not drawn) | > 200 | 16.6 | 
COC(=O)/C(=N/O)C(C(=O)OC)C(=O)C(=O)Nc1c(Cl)cc(C)cc1S(=O)(=O)O (stereo not drawn) | > 550 | > 550 | 
CC1=C(C(=O)Nc2ccc([N+](=O)[O-])cc2)C(c2ccc3c(c2)OCO3)C(C(=O)Nc2ccc([N+](=O)[O-])cc2)=C(C)N1 | > 6.76 | > 6.76 | 
O=C1CCC(N2C(=O)C3C4C=CC(CC4)C3C2=O)C(=O)N1 (stereo not drawn) | > 871 | > 871 | 
O=C(CCC(=O)Nc1ccc(Cl)cc1)CC(=O)c1ccc2ccccc2c1 | > 245 | > 245 | 
Cc1ccc(Oc2ccc([N+](=O)[O-])cc2[N+](=O)[O-])c(C)c1 |  |  | inactive
O=C(CCC(=O)OCC1OC(O)(CC2OC(CO)C(O)C(O)C2O)C(O)C1O)OCc1ccccc1 (stereo not drawn) | > 200 | > 200 | 
N#C/C(=C\n1ccc(=O)[nH]c1=S)C(=O)c1ccc2ccccc2c1 | > 200 | 123 | 
CCOC(=O)/C(C1=NCCN1)=C(\O)c1ccccc1 | 468 | 912 | 
Cc1cn(C2CC(O)C(COC(=O)CCCCCCCCCCN=[N+]=[N-])O2)c(=O)[nH]c1=O (stereo not drawn) | > 123 | 24 | 
O=C(/C=C/c1cccnc1)c1ccccc1 | > 123 | 7.59 | 
COc1ccc2nccc(NCCCN3CCN(CCCNc4ccnc5ccc(OC)cc45)CC3)c2c1 | > 0.537 | 0.105 | 
CC(=O)C1=C(O)CCC1=O | > 200 | > 200 | 
Clc1ccccc1CN1COc2c(cc(Cl)c3cccnc23)C1 | > 87.1 | 4.57 | 
C1CCC(OC2CSC2)OC1 (stereo not drawn) | > 389 | > 389 | 
COC(=O)NC(=O)c1cn(C2OC(CO)C(O)C2O)c(=O)[nH]c1=O (stereo not drawn) | > 724 | > 724 | 
Cc1nnnn1[C@H]1C(C#N)CC2[C@@H]3CCC4=Cc5nnnn5CC[C@]4(C)C3CC[C@@]21C (stereo partly drawn) | > 85.1 | > 85.1 | 
Nc1c(N2CCCCC2)c(=O)nc2[nH]/c(=C\c3ccccc3)c(=O)n12 | > 200 | 95.5 | 
O/N=c1/sc2ccccc2nc1-c1ccccc1 | > 200 | > 200 | 
Cc1ccc(S(=O)(=O)N(CC(=O)O)c2ccccc2)cc1 |  |  | inactive
O=C(CNC(c1ccccc1)(c1ccccc1)c1ccccc1)NC1CCCCC1NC(=O)CNC(c1ccccc1)(c1ccccc1)c1ccccc1 (stereo not drawn) | > 200 | > 200 | 

Compound | EC50 [µM] | IC50 [µM] | outcome
CCOC(=O)/C=C/c1cccc(F)c1 | > 200 | > 200 | 
COc1ccc(Cl)c2c1[nH]c1nc3nc4cc(Cl)ccc4n3nc12 | > 100 | > 100 | 
Cc1cc(N=Nc2ccc(C(=O)O)cc2)c(N)c(N=Nc2ccc(N=Nc3ccc(O)c(C(=O)O)c3)cc2)c1N | 38 | 195 | 
O=S(Cl)C(Cl)=C(Cl)Cl (stereo not drawn) | > 200 | 40.7 | 
CCOC(=O)/C=C/CC(C)(C)CCOC(C)=O | > 200 | > 200 | 
O=C(NC(C(F)(F)F)(C(F)(F)F)P(=O)(Cc1ccccc1)Cc1ccccc1)C(C(F)(F)F)C(F)(F)F |  |  | inactive
CN(C)CCN(C(=Nc1ccccc1)N1CCCC1)c1ccccc1 | > 200 | 8.32 | 
O=C1C(=O)C(Br)(c2ccccc2)C(=O)C1c1ccccc1 (stereo not drawn) | > 200 | > 200 | 
CC(C)C1=CC23CCC4C(C)(C(=O)O)CCCC4(C)C2CC1C1C(=O)N(c2ccc(C(=O)O)cc2)C(=O)C13 (stereo not drawn) | > 45.7 | > 45.7 | 
CC1(C)CC(=O)c2c([nH]c(=S)c(C#N)c2-c2ccc(Br)cc2)C1 | > 200 | 43.7 | 
CCCCC(CCCCCC(CCCC)C1NC(C)Cc2cc(OC)c(OC)cc21)C1NC(C)Cc2cc(OC)c(OC)cc21 (stereo not drawn) | > 200 | 0.447 | 
CC(=O)C1(C)CCC2C3C=C(C)C4=CC(=O)CCC4(C)C3CCC21C (stereo not drawn) | > 117 | 16.2 | 
NCCNCCCNC(=O)c1cc(-c2ccccc2)nc2ccccc12 | > 200 | 53.7 | 
CC(C)N(Cc1ccccc1)S(=O)(=O)c1n[nH]c(C(C)(C)C)n1 | > 200 | > 200 | 
COc1cc2c(cc1O)[C@@H]1Cc3c(cc(OC)c(OC)c3Oc3cc4c(cc3OC)CCN(C)[C@@H]4Cc3ccc(O)cc3)[C@H](C2)N1C | > 200 | 15.5 | 
CCCCCCCCCCCC(=O)OC(COC(N)=O)COc1ccc(Cl)cc1 (stereo not drawn) | > 12.3 | > 12.3 | 
COC(=O)C1(Cc2ccccc2)Cc2c(C)ccc(C)c2C1=O (stereo not drawn) | > 200 | > 200 | 
CC(C)(C)OC(=O)c1cccnc1/C=N/O | > 589 | 186 | 
C[C@H](CCC1=NCCN1)[C@H]1CC[C@H]2[C@@H]3[C@H](O)C[C@@H]4C[C@H](O)CC[C@]4(C)[C@H]3CC[C@]12C | > 200 | 24 | 
O=c1ccc(=O)n(CO)[nH]1 | > 1780 | 97.7 | 

From PubChem BioAssay AID179 (DTP/NCI, 2004)
